Assay [1] deals with T1, 5-HT1A receptor (Rattus norvegicus, UniProt P19327).
T1 construct: syndrome in the rat; from tissue; host or cells: living rat (endogenous receptor of the central nervous system)
T1 sequence (P19327 1-422): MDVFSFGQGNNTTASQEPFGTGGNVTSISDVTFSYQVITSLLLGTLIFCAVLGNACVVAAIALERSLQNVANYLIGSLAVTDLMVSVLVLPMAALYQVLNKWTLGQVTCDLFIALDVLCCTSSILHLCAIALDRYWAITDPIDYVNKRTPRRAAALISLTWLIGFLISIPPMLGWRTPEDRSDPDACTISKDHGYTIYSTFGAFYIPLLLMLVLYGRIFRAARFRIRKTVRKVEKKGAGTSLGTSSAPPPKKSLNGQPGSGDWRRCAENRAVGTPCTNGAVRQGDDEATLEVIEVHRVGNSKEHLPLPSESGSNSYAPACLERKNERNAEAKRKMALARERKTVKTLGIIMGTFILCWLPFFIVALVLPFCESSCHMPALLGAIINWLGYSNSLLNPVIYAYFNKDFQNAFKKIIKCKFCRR
The assay can be described thus: 5-HT1A receptor binding activity in rat hippocampal membrane homogenate. To be noted: method of Alexander and Wood. As to the method: The compounds of the invention are tested for 5-HT1A receptor binding activity in rat hippocampal membrane homogenate by the method of B S Alexander and M D Wood, J Pharm Pharmacol, 1988, 40, 888-891.

In assay [2] the target is T1, 5-HT1A receptor. The assay can be described thus: antagonism of 8-OH DPAT syndrome in the rat (5-HT1A receptor antagonism activity). In kind it is in vivo. As to the method: The compounds are tested for 5-HT1A receptor antagonism activity in a test involving the antagonism of 8-hydroxy-2-(di-n-propylamino)-tetralin (8-OH DPAT) syndrome in the rat. (R,S)-1-(2-Methoxyphenyl)-4-[2-(IH-imidazol-1-yl) -2-(phenyl)ethylpiperazine had MED of 1 mg/kg subcut and 10 mg/kg p.o when tested in this procedure.

On to `COc1ccccc1N1CCN(CC(c2ccccc2)n2ccnc2)CC1` (stereo not drawn) [Example 1, 1-(2-Methoxyphenyl)-4-[2-(1H-imidazol-1-yl)-2-(phenyl)ethyl]piperazine], for which the IC50 in assay [1] worked out at 15.8 nM. The MED in assay [2] (p.o) is 10 mg/kg; in assay [2] (subcut), 1 mg/kg.

One may read the IC50 as the concentration that inhibits the measured activity by half. A higher IC50 goes with weaker potency in that assay.

These data come from patent US5177078A, “Piperazine derivatives” (John Wyeth & Brother Limited, priority 1990, dated 1993).
